Experiment: Comparative in vitro release of Oligo-3 and Oligo-4 from gold nanoparticles with glutathione, followed by fluorescence
Conditions: PBS, glutathione final concentration 1 mM, Ex: 470, Em: 517 nm
Experimental: To a solution of modified gold nanoparticles prepared in Example 9 in PBS bearing the Oligo-3 or Oligo-4 was added glutathione (final concentration 1 mM). The in vitro release of the oligonucleotides bearing the fluorescein molecule is followed by fluorescence. The fluorescence was recorded at different periods of time. […] Particularly, in the case of Oligo-3, the fluorescence increases fast due to the release of the oligonucleotide from the gold nanoparticle in the presence of glutathione at 1 mM. The fluorescence is quenched when fluorescein is close to the gold nanoparticle, but it increases over time due to the release of the fluorescent oligonucleotide in the presence of glutathione. […] Ex: 470, Em: 517 nm.

## Oligo-4: TTTTTTTTTT (SEQ ID NO: 3), fluorescein at 5′, dithiolane group at 3′ but not the disulfide group; comparative (5' fluorescein; 3' dithiolane; Oligonucleotide sequence as in Oligo-3 and Oligo-4)
  in vitro release of the fluorescein oligonucleotide from gold nanoparticles: inefficient release

## Oligo-3: TTTTTTTTTT (SEQ ID NO: 3), fluorescein at position 5′ and the modification herein reported at position 3′ (5' fluorescein; 3' modification; Oligonucleotide sequence as in Oligo-3 and Oligo-4)
  in vitro release of the fluorescein oligonucleotide from gold nanoparticles: release takes place efficiently
